What all share (experiment): NCI-60 cell line screen, 48 h
Test [1] concerns CCRF-CEM leukemia.
For test [2], the system named is LOX IMVI melanoma.
Test [3] concerns SN12C renal.
The subject of test [4] is SK-MEL-2 melanoma.
Test [5] relates to A549 NSCLC.
Test [6] concerns SNB-75 CNS.
Test [7] relates to HCT-15 colon.
The test system of test [8] is NCI-H23 lung.
The subject of test [9] is OVCAR-3 ovarian.
The test system of test [10] is U251 CNS.
For test [11], the system named is HT29 colon.
Test [12] relates to MALME-3M melanoma.
Test [13] deals with SNB-19 CNS.
Test [14] concerns NCI-H460 lung.
Test [15] has as its system SF-539 CNS.
Test [16] has as its system HL-60(TB) leukemia.
In test [17] the test system is SK-MEL-5 melanoma.
In test [18] the test system is OVCAR-8 ovarian.
In test [19] the test system is SK-MEL-28 melanoma.
For test [20], the system named is KM12 colon.

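These data come from cells grown in 96-well plates and exposed to compound for 48 hours at five concentrations. At the TGI there is no net growth.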

As for `COc1cc(N=Nc2cccc(S(=O)(=O)O)c2)ccc1N=Nc1ccc(/C=C/c2ccc(-n3on3-c3ccc(/C=C/c4ccc(N=Nc5ccc(N=Nc6cccc(S(=O)(=O)O)c6)cc5OC)cc4S(=O)(=O)O)c(S(=O)(=O)O)c3)cc2S(=O)(=O)O)c(S(=O)(=O)O)c1`, the TGI in test [1], in test [2], in [3], in [4], in test [5] and in test [6] was greater than 100 µM each time. The TGI in [7], in test [8], in test [9], in test [10], in [11] and in [12] was greater than 100 µM throughout. Moreover, the TGI in [13], in test [14], in [15], in test [16], in test [17] and in test [18] was greater than 100 µM throughout. In addition, the TGI in test [19] and in [20] was greater than 100 µM in each case.

As for `CCOP(=O)(COCCn1ncc(=O)[nH]c1=O)OCC`, the TGI in test [1], in test [2], in test [3], in test [4], in test [5] and in test [6] was greater than 100 µM in each case. In addition, the TGI in [7], in [8], in test [9], in [10], in test [11] and in test [12] was greater than 100 µM throughout. Besides, the TGI in test [13], in test [14], in test [15], in test [16], in test [17] and in [18] was greater than 100 µM in each case. The TGI in test [19] and in test [20] was greater than 100 µM throughout.

For the compound `O=C1NP23(OCCO2)Oc2ccccc2C3(C(F)(F)F)O1` (stereo not given), the TGI in [1], in [2], in test [3], in test [4], in test [5] and in test [6] was greater than 100 µM in each case. Besides, the TGI in test [7], in test [8], in [9], in test [10], in [11] and in [12] was greater than 100 µM each time. For the same compound, the TGI in test [13], in test [14], in [15], in test [16], in [17] and in [18] was greater than 100 µM throughout. In addition, the TGI in test [19] and in [20] was greater than 100 µM each time.

Regarding `O=C(O)C1C2C=CC(C2)C1c1ccccc1` (stereo not given), the TGI in [1], in test [2], in test [3], in test [4], in [5] and in test [6] was greater than 100 µM each time. For the same compound, the TGI in test [7], in [8], in [9], in [10], in test [11] and in test [12] was greater than 100 µM each time. The TGI in [13], in test [14], in test [15], in [16], in test [17] and in [18] was greater than 100 µM in each case. Further, the TGI in test [19] and in test [20] was greater than 100 µM in each case.

For `CC(=O)O/C(=C1\C[C@H]2[C@@H]3CC=C4C[C@@H](OC(C)=O)CC[C@]4(C)[C@H]3CC[C@]2(C)C1=O)C(F)(F)F`, the TGI in [1] was found to be 13.9 µM; in test [2], 5.17 µM; in [3] it was 24.1 µM; in test [4], 17.2 µM; in test [5], 36.8 µM; in test [6], 47.4 µM. The TGI in [7] worked out at 17.6 µM; in test [8], 18.3 µM; in [9], 21.2 µM; in test [10], 17.7 µM; in test [11], 29.2 µM; in test [12], 9.53 µM. The TGI in test [13] turned out to be 40.6 µM; in [14] it was 18.3 µM; in [15], 15.2 µM; in test [16], 13.6 µM; in [17] it was 14.4 µM; in [18], 16.8 µM. The TGI in test [19] was found to be 31.9 µM; in test [20], 31.8 µM.

Take `N#CC(OC1OC(COC2OC(CO)C(O)C(O)C2O)C(O)C(O)C1O)c1ccccc1` (stereo not given): the TGI in test [1], in test [2], in test [3], in test [4], in test [5] and in test [6] was greater than 225 µM in each case. For the same compound, the TGI in [7], in test [8], in [9], in test [10], in test [11] and in test [12] was greater than 225 µM throughout. Further, the TGI in test [13], in test [14], in test [15], in test [16], in test [17] and in [18] was greater than 225 µM in each case. For the same compound, the TGI in [19] and in test [20] was greater than 225 µM each time.

These data come from PubChem BioAssay (NCI).
